Source: patent US6525001B1, “Substituted pyrimidine and pyridine herbicides” (Mid-American Commercialization Corporation, priority 1997, dated 2003)

Legend:
Format in all cases: in vivo
[1] = system: crabgrass (Digitaria sanguinalis); test: Test B pre-/postemergence; parameters: key: 0 is no effect; 10 is complete control; settings: for Crabgrass plant response rating: Preemergence
In short: (§1)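 Seeds were planted and sprayed preemergence, while plants at 2 to 18 cm (1- to 4-leaf stage) were sprayed postemergence at the same time, with test chemical in a non-phytotoxic solvent mixture containing surfactant. After twelve to sixteen days in a greenhouse, injury was rated visually against untreated controls on a 0–10 scale.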

[2] = system: cocklebur (Xanthium strumarium); test: Test B pre-/postemergence; parameters: key: 0 is no effect; 10 is complete control; settings: for Cocklebur plant response rating: Preemergence
In short: as §1

[3] = system: wheat (Triticum aestivum); test: Test B pre-/postemergence; parameters: key: 0 is no effect; 10 is complete control
In short: as §1

[4] = system: broadleaf signalgrass (Brachiaria decumbens); test: Test B pre-/postemergence; parameters: key: 0 is no effect; 10 is complete control; settings: for B. signalgrass plant response rating: Preemergence
In short: as §1

[5] = system: soybean (Glycine max); test: Test B pre-/postemergence; parameters: key: 0 is no effect; 10 is complete control
In short: as §1

[6] = system: rape (Brassica napus); test: Test B pre-/postemergence; parameters: key: 0 is no effect; 10 is complete control
In short: as §1

[7] = system: bedstraw (Galium aparine); test: Test B pre-/postemergence; parameters: key: 0 is no effect; 10 is complete control; settings: for Bedstraw plant response rating: Preemergence
In short: as §1

[8] = system: blackgrass (Alopecurus myosuroides); test: Test B pre-/postemergence; parameters: key: 0 is no effect; 10 is complete control; settings: for Blackgrass plant response rating: Preemergence
In short: as §1

[9] = system: corn (Zea mays); test: Test B pre-/postemergence; parameters: key: 0 is no effect; 10 is complete control; settings: for Corn plant response rating: Preemergence
In short: as §1

[10] = system: pigweed (Amaranthus retroflexus); test: Test B pre-/postemergence; parameters: key: 0 is no effect; 10 is complete control
In short: as §1

[11] = system: sugar beet (Beta vulgaris); test: Test B pre-/postemergence; parameters: key: 0 is no effect; 10 is complete control
In short: as §1

[12] = system: velvetleaf (Abutilon theophrasti); test: Test B pre-/postemergence; parameters: key: 0 is no effect; 10 is complete control
In short: as §1

[13] = system: giant foxtail (Setaria faberii); test: Test B pre-/postemergence; parameters: key: 0 is no effect; 10 is complete control
In short: as §1

[14] = system: momingglory (Ipomoea hederacea); test: Test B pre-/postemergence; parameters: key: 0 is no effect; 10 is complete control
In short: as §1

[15] = system: wild oat (Avena fatua); test: Test B pre-/postemergence; parameters: key: 0 is no effect; 10 is complete control
In short: as §1

[16] = system: purple nutsedge (Cyperus rotundus); test: Test B pre-/postemergence; parameters: key: 0 is no effect; 10 is complete control; settings: Postemergence
In short: as §1

[17] = system: duck salad (Heteranthera limosa); test: Test B flood test
In short: (§2)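 Plants were grown to the 2-leaf stage before treatment with test chemical, then held in a greenhouse for twelve to sixteen days. Injury was visually rated against untreated controls on a 0–10 scale, where 0 is no effect and 10 is complete control.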

[18] = system: smallflower flatsedge (Cyperus difformis); test: Test B flood test
In short: as §2

[19] = system: bamyardgrass (Echinochloa crus-galli); test: Test B flood test
In short: as §2

[20] = system: rice (Oryza sativa); test: Test B flood test
In short: as §2

[21] = Rate 250 g/ha, Postemergence (so in the source)
[22] = Rate 62 g/ha, Postemergence (flood test)
[23] = Rate 125 g/ha, Postemergence, flood test
[24] = Rate 250 g/ha, Postemergence (flood test species)
[25] = Rate 125 g/ha, Postemergence section (flood test species)

CCc1cnc(-c2ccc(C(F)(F)F)cc2)nc1Cc1cccc(OC(F)(F)F)c1 [Compound 41]
10: Plant response rating, Crabgrass ([1]; Rate 250 g/ha, Postemergence) | Plant response rating, Rape ([6]; Rate 62 g/ha, Postemergence) | Rape plant response rating ([6]; Rate 125 g/ha, Postemergence) | Plant response rating, Rape ([6]; Rate 250 g/ha, Postemergence) | Plant response rating, Bedstraw ([7]; Rate 250 g/ha, Postemergence) | Plant response rating, Blackgrass [8, 21] | Redroot pigweed plant response rating ([10]; Rate 125 g/ha, Postemergence) | Redroot pigweed plant response rating ([10]; Rate 125 g/ha, Preemergence) | Plant response rating, Redroot pigweed ([10]; Rate 250 g/ha, Postemergence) | Plant response rating, Redroot pigweed [10, 21] | Plant response rating, Sugarbeets ([11]; Rate 62 g/ha, Postemergence) | Sugarbeets plant response rating ([11]; Rate 125 g/ha, Postemergence) | Plant response rating, Sugarbeets ([11]; Rate 250 g/ha, Postemergence) | Plant response rating, Velvetleaf [12, 21] | Plant response rating, Giant foxtail [13, 21]
0: Cocklebur plant response rating ([2]; Rate 62 g/ha) | Cocklebur plant response rating ([2]; Rate 125 g/ha) | Plant response rating, Cocklebur [2, 21] | Soybean plant response rating ([5]; Rate 62 g/ha, Preemergence) | Plant response rating, Soybean ([5]; Rate 125 g/ha, Preemergence) | Corn plant response rating ([9]; Rate 62 g/ha) | Plant response rating, Nutsedge ([16]; Rate 62 g/ha) | Nutsedge plant response rating ([16]; Rate 125 g/ha) | Plant response rating, Nutsedge ([16]; Rate 250 g/ha)
5: Plant response rating, Soybean ([5]; Rate 62 g/ha, Postemergence) | Plant response rating, Blackgrass ([8]; Rate 62 g/ha, Postemergence) | Wild oats plant response rating ([15]; Rate 125 g/ha, Postemergence) | Plant response rating, Ducksalad [17, 24] | Plant response rating, S. Flatsedge [18, 22] | Plant response rating, Barnyardgrass [19, 22] | Plant response rating, Barnyardgrass [19, 23] | Plant response rating, Barnyardgrass [19, 24] | Plant response rating, Rice [20, 22] | Rice plant response rating [20, 25]
3: Wheat plant response rating ([3]; Rate 125 g/ha, Postemergence) | Plant response rating, Wheat ([3]; Rate 250 g/ha, Postemergence) | Plant response rating, B. signalgrass ([4]; Rate 125 g/ha, Postemergence) | Rape plant response rating ([6]; Rate 62 g/ha, Preemergence) | Rape plant response rating ([6]; Rate 125 g/ha, Preemergence) | Plant response rating, Corn ([9]; Rate 250 g/ha, Postemergence) | Sugarbeets plant response rating ([11]; Rate 62 g/ha, Preemergence) | Plant response rating, Velvetleaf ([12]; Rate 125 g/ha, Preemergence) | Plant response rating, Ducksalad [17, 23]
9: Plant response rating, Crabgrass ([1]; Rate 125 g/ha, Postemergence) | Crabgrass plant response rating ([1]; Rate 125 g/ha) | Plant response rating, Crabgrass [1, 21] | Plant response rating, Cocklebur ([2]; Rate 250 g/ha, Postemergence) | Plant response rating, Bedstraw ([7]; Rate 62 g/ha, Postemergence) | Plant response rating, Bedstraw ([7]; Rate 125 g/ha, Postemergence) | Blackgrass plant response rating ([8]; Rate 125 g/ha) | Plant response rating, Redroot pigweed ([10]; Rate 62 g/ha, Postemergence) | Giant foxtail plant response rating ([13]; Rate 125 g/ha, Preemergence) | Plant response rating, Giant foxtail ([13]; Rate 250 g/ha, Postemergence) | Plant response rating, Wild oats ([15]; Rate 125 g/ha, Preemergence) | Plant response rating, Wild oats [15, 21] | Plant response rating, S. Flatsedge [18, 24]
2: Wheat plant response rating ([3]; Rate 62 g/ha, Postemergence) | Plant response rating, Wheat [3, 21] | Plant response rating, B. signalgrass ([4]; Rate 62 g/ha, Postemergence) | B. signalgrass plant response rating ([4]; Rate 62 g/ha) | Bedstraw plant response rating ([7]; Rate 62 g/ha) | Bedstraw plant response rating ([7]; Rate 125 g/ha) | Plant response rating, Corn ([9]; Rate 62 g/ha, Postemergence) | Plant response rating, Corn ([9]; Rate 125 g/ha, Postemergence) | Plant response rating, Giant foxtail ([13]; Rate 62 g/ha, Postemergence) | Plant response rating, Morningglory [14, 21] | Plant response rating, Ducksalad [17, 22]
8: Crabgrass plant response rating ([1]; Rate 62 g/ha) | Plant response rating, Cocklebur ([2]; Rate 125 g/ha, Postemergence) | Plant response rating, Bedstraw [7, 21] | Plant response rating, Blackgrass ([8]; Rate 250 g/ha, Postemergence) | Plant response rating, Sugarbeets [11, 21] | Plant response rating, Velvetleaf ([12]; Rate 62 g/ha, Postemergence) | Velvetleaf plant response rating ([12]; Rate 125 g/ha, Postemergence) | Plant response rating, Velvetleaf ([12]; Rate 250 g/ha, Postemergence) | Plant response rating, Morningglory ([14]; Rate 62 g/ha, Postemergence) | Morningglory plant response rating ([14]; Rate 125 g/ha, Postemergence) | Plant response rating, Morningglory ([14]; Rate 250 g/ha, Postemergence)
4: Plant response rating, Rape [6, 21] | Redroot pigweed plant response rating ([10]; Rate 62 g/ha, Preemergence) | Wild oats plant response rating ([15]; Rate 62 g/ha, Postemergence) | Wild oats plant response rating ([15]; Rate 62 g/ha, Preemergence)
6: B. signalgrass plant response rating ([4]; Rate 125 g/ha) | Plant response rating, B. signalgrass ([4]; Rate 250 g/ha, Postemergence) | Plant response rating, Blackgrass ([8]; Rate 125 g/ha, Postemergence) | Plant response rating, Sugarbeets ([11]; Rate 125 g/ha, Preemergence) | Giant foxtail plant response rating ([13]; Rate 62 g/ha, Preemergence) | Giant foxtail plant response rating ([13]; Rate 125 g/ha, Postemergence) | Plant response rating, Rice [20, 24]
7: Plant response rating, Crabgrass ([1]; Rate 62 g/ha, Postemergence) | Plant response rating, Cocklebur ([2]; Rate 62 g/ha, Postemergence) | Plant response rating, B. signalgrass ([4]; Rate 250 g/ha, Postemergence as printed in head r139 (second section for compounds 26-50)) | Soybean plant response rating ([5]; Rate 125 g/ha, Postemergence) | Plant response rating, Soybean ([5]; Rate 250 g/ha, Postemergence) | Blackgrass plant response rating ([8]; Rate 62 g/ha) | Plant response rating, Wild oats ([15]; Rate 250 g/ha, Postemergence) | S. Flatsedge plant response rating [18, 25]
1: Wheat plant response rating ([3]; Rate 62 g/ha, Preemergence) | Plant response rating, Wheat ([3]; Rate 125 g/ha, Preemergence) | Plant response rating, Soybean [5, 21] | Corn plant response rating ([9]; Rate 125 g/ha) | Plant response rating, Corn [9, 21] | Velvetleaf plant response rating ([12]; Rate 62 g/ha, Preemergence) | Morningglory plant response rating ([14]; Rate 62 g/ha, Preemergence) | Morningglory plant response rating ([14]; Rate 125 g/ha, Preemergence)
